{
  "source": "patent US8603737B2",
  "about": "“Methods for identifying HCV protease inhibitors” (priority 2008, dated 2013)",
  "type_in_all_cases": "biochemical",
  "key": {"[1]": {"target": "T1, wild type HCV NS3/4A 1b protease enzyme (Hepatitis C virus genotype 1b, UniProt P26663)", "T1 construct": "10× stocks of NS3/4A protease enzyme from Bioenza; purchased Bioenza (Mountain View, Calif.)", "assay": "HCV protease FRET assay, wild type NS3/4A 1b enzyme", "excerpt": "Method B: HCV Protease FRET Assay for Wild Type and Mutated NS3/4A 1b Enzymes (IC50)\nA quantitative, fluorescence resonance energy transfer (FRET)-based methodology was employed to identify HCV NS3/4A protease inhibitors. The assay employed a synthetic FRET peptide, derived from the HCV NS5A/5B cleavage site, with the HCV protease to evaluate the activity of compounds against the protease by monitoring the cleavage activity of the complex. A synthetic peptide which encompasses the NS5A-5B junction (NH2-[…]-COOH) (SEQ ID NO: 78) was labeled with Dabcyl and Edans at N- and C-termini, respectively (Invitrogen, Carlsbad, Calif.). Fluorescence measurement was used to estimate the IC50 value of the test compound. […] Upon cleavage of the FRET peptide by HCV NS3/4A proteinase complex (100 ng/mL), the fluorescence is recovered and can be continuously monitored at excitation/emission=340/490 nm.\nAssay buffer: 2% CHAPS, 50 mM Tris pH 7.5, 50% glycerol, 2 uM M-2235 (Bachem) substrate. In a 50 μl reaction, add 49 μl assay buffer, 1 μl (1 U) HCV serine protease (Bioenza). Incubate 20 minutes at room temperature. The plate was read at either 350/460 nm (excitation/emission) on a fluorescent micro-plate reader or monitored at one-minute intervals to achieve the kinetic curve.\nHCV Protease FRET Assay for WT and Mutated NS3/4A 1b Enzymes (IC50 —APP)\nThe following protocol was used to generate “apparent” IC50 (IC50—APP)) values as depicted in Table 3, below. Without wishing to be bound by any particular theory, it is believed that IC50—APP, contrasted with IC50 values, may provide a more useful indication of time-dependent inhibition, and are thus more representative of binding affinity. […] Protease reactions were immediately started after enzyme addition with the addition of 45 μL of the FRET substrate and monitored for 60-90 minutes at λex485/λem520 in a Synergy^4 plate reader from BioTek (Winooski, Vt.). […]"}, "[2]": {"target": "T2, A156S mutant of the HCV NS3/4A 1b protease enzyme (Hepatitis C virus genotype 1b, UniProt P26663, A1182S)", "T2 construct": "10× stocks of NS3/4A protease enzyme from Bioenza; purchased Bioenza (Mountain View, Calif.)", "assay": "HCV protease FRET assay, A156S mutant", "settings": "read-out: Inhibition, HCV A156S (IC50)", "procedure": "(§1) HCV Protease FRET Assay for Mutated NS3/4A 1b Enzymes\n(§2) The protocol is a modified FRET-based assay (v—02) from In Vitro Resistance Studies of HCV Serine Protease Inhibitors, 2004, JBC, vol. 279, No. 17, pp 17508-17514. Inherent potency of compounds was assessed against A156S, A156T, D168A, and D168V mutants of the HCV NS3/4A 1b protease enzyme as follows: […]\n(§3) 10× stocks of NS3/4A protease enzyme from Bioenza (Mountain View, Calif.) and 1.13×5-FAM/QXL™520 FRET peptide substrate from Anaspec (San Jose, Calif.) were prepared in 50 mM HEPES, pH 7.8, 100 mM NaCl, 5 mM DTT and 20% glycerol. 5 μL of each enzyme were pre-incubated in a Corning (#3573) 384-well, black, non-treated microtiter plate (Corning, N.Y.) for 30 min at 25° C. with a 0.5 μL volume of 50% DMSO and serially diluted compounds prepared in 50% DMSO. Protease reactions were started with the addition of 45 μL of the FRET substrate and monitored for 120 minutes at λex487/λem514 through Quad^4 monochromoters in a Synergy^4 plate reader from BioTek (Winooski, Vt.). At the conclusion of each assay, progress curves from each well were examined for linear reaction kinetics and fit statistics (R^2, absolute sum of squares). Initial velocity (0 minutes to 30+ minutes) from each reaction was determined from the slope of a plot of relative fluorescence units vs time (minutes) and then plotted against inhibitor concentration to estimate IC50 from log[Inhibitor] vs Response, Variable Slope model in GraphPad Prism from GraphPad Software (San Diego, Calif.). […]\n(§4) The compound numbers correspond to the compound numbers in Table 3. Compounds having an activity designated as “A” provided an IC50≦10 nM; compounds having an activity designated as “B” provided an IC50>10 nM and ≦100 nM; compounds having an activity designated as “C” provided an IC50>100 nM and ≦1000 nM; and compounds having an activity designated as “D” provided an IC50>1000 nM and <10,000 nM."}, "[3]": {"target": "T3, D168A mutant of the HCV NS3/4A 1b protease enzyme (Hepatitis C virus genotype 1b, UniProt P26663, D1194A)", "T3 construct": "10× stocks of NS3/4A protease enzyme from Bioenza; purchased Bioenza (Mountain View, Calif.)", "assay": "HCV protease FRET assay, D168A mutant", "settings": "read-out: Inhibition, HCV D168A (IC50)", "procedure": "as §1, §2, §3, §4"}},
  "data": [
    {"smiles": "C=C[C@@H]1C[C@]1(NC(=O)[C@@H]1C[C@@H](Oc2cc(-c3ccccc3)nc3cc(OC)ccc23)CN1C(=O)C(NC(=O)OC(C)(C)C)[C@@H](C)OC(=O)/C=C/C)C(=O)NS(=O)(=O)C1CC1", "note": "(stereo partly drawn) [Compound 3]", "values": [
      {"measurement": "IC50", "setting": "[1]", "value": "< 10", "unit": "nM"},
      {"measurement": "IC50", "setting": "[2]", "value": "< 10", "unit": "nM"},
      {"measurement": "IC50", "setting": "[3]", "value": "100 to 1000", "unit": "nM"}
    ]},
    {"smiles": "C=CC(=O)N(C)C[C@H](NC(=O)OC(C)(C)C)C(=O)N1C[C@H](OC(=O)N2Cc3cccc(F)c3C2)C[C@H]1C(=O)N[C@]1(C(=O)NS(=O)(=O)C2CC2)C[C@H]1C=C", "note": "[Compound 4]", "values": [
      {"measurement": "IC50", "setting": "[1]", "value": "< 10", "unit": "nM"},
      {"measurement": "IC50", "setting": "[2]", "value": "< 10", "unit": "nM"},
      {"measurement": "IC50", "setting": "[3]", "value": "10 to 100", "unit": "nM"}
    ]},
    {"smiles": "CC(C)(C)OC(=O)NC1CN(C(=O)CCl)CCC/C=C\\[C@@H]2C[C@@]2(C(=O)NS(=O)(=O)C2CC2)NC(=O)[C@@H]2C[C@@H](OC(=O)N3Cc4cccc(F)c4C3)CN2C1=O", "note": "(stereo partly drawn) [Compound 8]", "values": [
      {"measurement": "IC50", "setting": "[1]", "value": "< 10", "unit": "nM"},
      {"measurement": "IC50", "setting": "[2]", "value": "< 10", "unit": "nM"},
      {"measurement": "IC50", "setting": "[3]", "value": "10 to 100", "unit": "nM"}
    ]}
  ]
}
